In US20080107625A1, “Inhibitors of Hepatitis C Virus” (Bristol-Myers Squibb Company, priority 2006, published 2008) one finds EC50 data, which are given here for one compound.

The test system of this test is HCV replicon (Renilla luciferase reporter) in HUH-7 cells. In words: HCV replicon luciferase reporter assay. Type of test: cell-based, HCV strain 1b. The following applies: Huh-7, 96 h; 4 days. The text has this: An HCV replicon whole cell system was established as described by Lohmann V, Korner F, Koch J, Herian U, Theilmann L, Bartenschlager R., Science 285(5424): 110-3 (1999). This system enabled us to evaluate the effects of our HCV Protease compounds on HCV RNA replication. Briefly, using the HCV strain 1b sequence described in the Lohmann paper (Assession number: AJ238799), an HCV cDNA was synthesized by Operon Technologies, Inc. (Alameda, Calif.), and the full-length replicon was then assembled in plasmid pGem9zf(+) (Promega, Madison, Wis.) using standard molecular biology techniques. […]
As a secondary assay, EC50 determinations from the replicon FRET assay were confirmed in a replicon luciferase reporter assay. […] Following 4 days in a 37° C./5% CO2 incubator, cells were analyzed for Renilla Luciferase activity using the Promega Dual-Glo Luciferase Assay System. […] Plates were read on a Packard TopCount NXT using a luminescence program.
The percentage inhibition was calculated using the formula below: • % control=average luciferase signal in experimental wells (+compound) • average luciferase signal in DMSO control wells (−compound)
The values were graphed and analyzed using XLfit to obtain the EC50 value.

For orientation: EC50 means the concentration that produces a half-maximal response. Low values mean an effect from little substance, high ones a need for much substance. On to `CC(C)(C)OC(=O)N[C@H]1CN(C2CC2)CCC/C=C\C2C[C@@]2(C(=O)NS(=O)(=O)C2CC2)NC(=O)[C@@H]2C[C@@H](Oc3ccccn3)CN2C1=O` (stereo partly shown) [Compound 1], for which the EC50 was determined as 0.202 µM.
